Laboratory results as given in patent US6566304B1, “Biogenic control and limitation of the reproduction of parasitic earth nematodes in stock culture” (priority 1998, dated 2003).

Legend:
Format in all cases: in vivo
[1] = tested on: microorganisms (bacteria per g of soil); experiment: Example 5 pot test with tomatoes: soil microorganisms
Description: (§1) Tomatoes were pregerminated in a temperature-controlled (18° C.) greenhouse and, at the two-leaf stage, the plants were each transplanted in a plastic pot (9×9 cm) filled with 500 g of a mixture of field soil and sand (1:1). The test substances were applied 2 days after transplanting. One day later, each pot was inoculated with 1,000 larvae of the nematode Meloidogyne incognita. 8 Weeks later, the test was terminated and the density of the nematodes and also the shoot and root weights of the plants were determined.
(§2) The following variants (with 8 repetitions each) were selected for the tests:
(§3) fertilized control (quantity of N/P corresponds to 40 g/m^2 TerraPy B)
(§4) control treated with nematicide (Aldicarb, 1 ppm)
(§5) The object of this test was to investigate the smaller effective dose of the product.

[2] = tested on: nematode Meloidogyne incognita; experiment: Example 5 pot test with tomatoes: gall index of root system; settings: Example 5, tomatoes, 8 weeks; scale 1 to 10; comparators: Aldicarb 1 ppm; fertilized control N/P corresponds to 40 g/m^2 TerraPy B
Description: (§6) The gall index is a measure of the damage caused to the root system by the nematodes and is basically a scale of 1 to 10 where 1=undamaged and 10=completely damaged root system.
as §1, §2, §3, §4, §5

[3] = tested on: nematode Meloidogyne incognita; experiment: Example 4 pot test with tomatoes: gall index of root system; settings: Example 4, tomatoes, 8 weeks; scale 1 to 10 (1=undamaged, 10=completely damaged root system); comparators: Aldicarb 1 ppm; fertilized control N/P corresponds to 40 g/m^2 TerraPy B
Description: as §1
(§7) The following variants (with 10 repetitions each) were selected for the tests:
as §3, §4, §6

[4] = tested on: nematode Heterodera schachtii; experiment: Example 3 pot test with sugar beet: nematode cysts on roots; settings: Example 3, sugar beet, 6 weeks; comparators: Aldicarb 1 ppm; fertilized control N/P corresponds to 40 g/m^2 TerraPy G
Description: as §1, with “Sugar beet was” for “Tomatoes were”, “500” for “1,000”, “Heterodera schachtii. 6” for “Meloidogyne incognita. 8”
as §7
(§8) fertilized control (quantity of N/P corresponds to 40 g/m^2 TerraPy G)
as §4

[5] = tested on: tomatoes; experiment: Example 7 pot test with tomatoes, combination with mycorrhiza: plant growth; settings: Example 7, tomatoes, 1,500 M. incognita larvae per pot, 9 weeks; Aldicarb 1 ppm; fertilized control N/P corresponds to 2 g/m^2 TerraPy B; TerraPy B 2 g/m^2; mycorrhiza 0.2%
Description: (§9) Tomato seeds were planted in plastic pots (9×9 cm) each filled with 320 g of a mixture of field soil and sand (1:1) in a temperature-controlled greenhouse (18° C.). The test substances were applied 29 days after emergence. Two days later, each pot was inoculated with 1,500 larvae of the nematode Meloidogyne incognita. 9 Weeks later, the test was terminated and the density of the nematodes and the shoot and root weights of the plants were determined.
as §7
(§10) fertilized control (quantity of N/P corresponds to 2 g/m^2 TerraPy B)
(§11) nematicide-treated control (Aldicarb, 1 ppm)
(§12) mycorrhiza fungus mixture 0.2%
(§13) TerraPy B 2 g/m^2 plus mycorrhiza 0.2%
(§14) The mycorrhiza fungus mixture contained a mixed population of various Glomus strains of the species Glomus sclerocystis and G. gigasporum with 950 infectious units per cm^3 (=0.64 g per pot). The mixture was mixed with the pot soil after dilution to 0.2% at the beginning of the test.

[6] = tested on: tomatoes; experiment: Example 6 pot test with tomatoes, reduction of nematicides: plant growth
Description: as §1, with “incognita. 6” for “incognita. 8”
(§15) The following variants (with 10 repetitions each) were selected for the tests: fertilized control (quantity of N/P corresponds to 40 g/m^2 TerraPy B) control treated with nematicide (Aldicarb, 1 ppm)
(§16) TerraPy B 20 g/m^2 plus Aldicarb 0.1 ppm
(§17) In addition, pots with all the variants mentioned above which had not been inoculated with nematodes were included in the tests.

[7] = tested on: nematode Meloidogyne incognita; experiment: Example 7 pot test with tomatoes, combination with mycorrhiza: galls on root system; settings: Aldicarb 1 ppm, fertilized control N/P corresponds to 2 g/m^2 TerraPy B, TerraPy B 2 g/m^2, mycorrhiza 0.2%
Description: as §9, §7, §10, §11, §12, §13, §14

[8] = tested on: microorganisms (bacteria per g of soil); experiment: Example 4 pot test with tomatoes: soil microorganisms
Description: as §1, §7, §3, §4

[9] = tested on: sugar beet; experiment: Example 3 pot test with sugar beet: plant growth
Description: as §1, with “Sugar beet was” for “Tomatoes were”, “500” for “1,000”, “Heterodera schachtii. 6” for “Meloidogyne incognita. 8”
as §7, §8, §4

[10] = tested on: microorganisms (bacteria per g of soil); experiment: Example 3 pot test with sugar beet: soil microorganisms
[11] = tested on: tomatoes; experiment: Example 4 pot test with tomatoes: plant growth
Description: as §1, §7, §3, §4

[12] = tested on: nematode Meloidogyne incognita; experiment: Example 6 pot test with tomatoes, reduction of nematicides: gall index; settings: Example 6, tomatoes, 6 weeks; Aldicarb 1 ppm; fertilized control N/P corresponds to 40 g/m^2 TerraPy B; TerraPy B 20 g/m^2; TerraPy B 20 g/m^2 plus Aldicarb 0.1 ppm
Description: as §6
as §1, with “incognita. 6” for “incognita. 8”
as §15, §16, §17

[13] = tested on: tomatoes; experiment: Example 5 pot test with tomatoes: plant growth; settings: Example 5, tomatoes, 1,000 M. incognita larvae per pot, 8 weeks; comparators: Aldicarb 1 ppm; fertilized control N/P corresponds to 40 g/m^2 TerraPy B
Description: as §1, §2, §3, §4, §5

[14] = 2 days, comparators: Aldicarb 1 ppm, fertilized control
[15] = 14 days, comparators: Aldicarb 1 ppm, fertilized control
[16] = 56 days, comparators: Aldicarb 1 ppm, fertilized control
[17] = Example 4, tomatoes, 8 weeks, comparators: Aldicarb 1 ppm, fertilized control N/P corresponds to 40 g/m^2 TerraPy B

Structure (SMILES): CNC(=O)O/N=C/C(C)(C)SC [Aldicarb]
- effect on bacteria / microorganisms, in words [1]: harmful effect
- bacteria per g of soil, 2 Days after application [1, 14]: 6 × 10^6 bacteria per g of soil
- bacteria per g of soil, 14 Days after application [1, 15]: 1 × 10^6 bacteria per g of soil
- bacteria per g of soil, 56 Days after application [1, 16]: 5 × 10^5 bacteria per g of soil
- Gall index [2]: 4.2
- Gall index [3]: 3.9
- Nematode cysts per g root weight [4]: 15 per g root weight
- Shoot weight [5]: 4.2 g
- plant growth / plant weight, in words ([6]; Example 6, tomato pot test): completely ineffective
- Root weight ([6]; Example 6, tomatoes, 6 weeks, Aldicarb 1 ppm, fertilized control N/P corresponds to 40 g/m^2 TerraPy B, TerraPy B 20 g/m^2, TerraPy B 20 g/m^2 plus Aldicarb 0.1 ppm): 1.8 g
- Shoot weight ([6]; Example 6, tomatoes, 1,000 M. incognita larvae per pot, 6 weeks, Aldicarb 1 ppm, fertilized control N/P corresponds to 40 g/m^2 TerraPy B, TerraPy B 20 g/m^2, TerraPy B 20 g/m^2 plus Aldicarb 0.1 ppm): 3 g
- Number of galls per root system ([7]; Example 7, tomatoes, 9 weeks): 22
- Number of galls per root system, In percent ([7]; Example 7, unfertilized untreated control = 100%): 19%
- effect on bacteria / microorganisms, in words [8]: harmful effect
- bacteria per g of soil, 2 Days after application [8, 14]: 1 × 10^7 bacteria per g of soil
- bacteria per g of soil, 14 Days after application [8, 15]: 4 × 10^7 bacteria per g of soil
- bacteria per g of soil, 56 Days after application [8, 16]: 1 × 10^6 bacteria per g of soil
- plant growth / plant weight, in words ([9]; Example 3, sugar beet pot test): not effective in increasing plant weight
- Root weight ([9]; Example 3, sugar beet, 6 weeks, comparators: Aldicarb 1 ppm, fertilized control N/P corresponds to 40 g/m^2 TerraPy G): 0.7 g
- Shoot weight ([9]; Example 3, sugar beet, 500 H. schachtii larvae per pot, 6 weeks, comparators: Aldicarb 1 ppm, fertilized control N/P corresponds to 40 g/m^2 TerraPy G): 2.1 g
- effect on bacteria / microorganisms, in words [10]: harmful effect
- bacteria per g of soil, 2 Days after application [10, 14]: 7 × 10^6 bacteria per g of soil
- bacteria per g of soil, 14 Days after application [10, 15]: 8 × 10^6 bacteria per g of soil
- bacteria per g of soil, 56 Days after application [10, 16]: 1 × 10^7 bacteria per g of soil
- plant growth / plant weight, in words ([11]; Example 4, tomato pot test): not effective in increasing plant weight
- Root length in cm [11, 17]: 12.0 cm
- Root weight [11, 17]: 1.5 g
- Shoot weight ([11]; Example 4, tomatoes, 1,000 M. incognita larvae per pot, 8 weeks, comparators: Aldicarb 1 ppm, fertilized control N/P corresponds to 40 g/m^2 TerraPy B): 4.7 g
- Gall index [12]: 0.5
- Shoot weight [13]: 4.2 g
